Test results taken from US11725036B2, “Modified lipidated relaxin B chain peptides and their therapeutic use” (Sanofi, priority 2018, dated 2023).
Starred links: 1 amine or outer side, 2 acyl side, 3 side chain; linkers in the order of their positions; H or OH if unused. Non-standard residues stand in square brackets, D forms with d. Residues, ends and D or L forms follow the SMILES beside them. Groups on a side chain read outwards from the residue. *: point of attachment. X1 = CCCCCCCCCCCCCCCC(=O)N[C@@H](CCC(=O)N[C@@H](CCC(=O)N[C@@H](CCC(=O)NCCCOCCOCCOCCCNC(=O)CCC(=O)NCCCOCCOCCOCCCNC(=O)CCC(=O)NCCCOCCOCCOCCCN*)C(=O)O)C(=O)O)C(=O)O; X6 = CCCCCCCCCCCCCC(=O)N[C@@H](CCC(=O)N[C@@H](CCC(=O)N[C@@H](CCC(=O)NCCCOCCOCCOCCCNC(=O)CCC(=O)NCCCOCCOCCOCCCNC(=O)CCC(=O)NCCCOCCOCCOCCCN*)C(=O)O)C(=O)O)C(=O)O; X4 = CCCCCCCCCCCCCCCCCC(=O)N[C@@H](CCC(=O)N[C@@H](CCC(=O)N[C@@H](CCC(=O)NCCCOCCOCCOCCCNC(=O)CCC(=O)NCCCOCCOCCOCCCN*)C(=O)O)C(=O)O)C(=O)O; Suc = O=C(CCC(=O)[*:2])[*:1]; αMeK = C[C@](N)(CCCCN)C(=O)O; Aib = CC(C)(N)C(=O)O

Target: T1, RXFP1 (Homo sapiens, UniProt Q9HBX9)
T1 construct: OVCAR5 cells expressing endogenous RXFP1; endogenous in cells; host or cells: OVCAR5
T1 sequence (Q9HBX9 1-757): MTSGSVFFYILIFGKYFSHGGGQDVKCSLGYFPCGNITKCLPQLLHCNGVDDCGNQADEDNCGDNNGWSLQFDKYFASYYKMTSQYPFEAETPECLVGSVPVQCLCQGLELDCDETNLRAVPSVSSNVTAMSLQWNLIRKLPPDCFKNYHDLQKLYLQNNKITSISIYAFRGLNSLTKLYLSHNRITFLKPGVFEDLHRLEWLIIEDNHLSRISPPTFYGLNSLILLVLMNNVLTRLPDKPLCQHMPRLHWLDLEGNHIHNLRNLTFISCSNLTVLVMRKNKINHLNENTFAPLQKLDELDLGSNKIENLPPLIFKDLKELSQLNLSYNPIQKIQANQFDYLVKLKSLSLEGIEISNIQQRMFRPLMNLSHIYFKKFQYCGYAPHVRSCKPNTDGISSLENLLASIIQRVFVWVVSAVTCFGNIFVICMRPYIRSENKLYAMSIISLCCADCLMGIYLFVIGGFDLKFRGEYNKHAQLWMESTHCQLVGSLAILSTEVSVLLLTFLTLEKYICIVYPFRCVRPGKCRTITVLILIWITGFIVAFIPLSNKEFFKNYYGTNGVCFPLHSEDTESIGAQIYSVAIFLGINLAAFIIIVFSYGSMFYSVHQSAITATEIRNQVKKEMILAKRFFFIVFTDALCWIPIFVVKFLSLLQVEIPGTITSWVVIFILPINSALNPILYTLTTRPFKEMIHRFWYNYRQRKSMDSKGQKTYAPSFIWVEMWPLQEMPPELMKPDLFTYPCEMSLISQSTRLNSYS
Experiment: OVCAR5 cAMP assay (HTRF)
Assay type: cell-based
Details: for EC50: OVCAR 5 cells expressing endogenous RXFP1, cAMP readout; for Emax: OVCAR 5 cells, maximal cAMP relative to H2-relaxin
Summary of the method: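 Endogenous RXFP1 in OVCAR5 cells, pretreated 40 min at 37° C with 1 mM IBMX, then exposed to increasing peptide concentrations in serum-free medium for 30 min at 37° C. cAMP read by HTRF; EC50 by variable-slope sigmoidal fit, Emax as % of H2-relaxin maximal cAMP in same run.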

SMILES	EC50	Emax
CCCCCCCCCCCCCCCC(=O)N[C@@H](CCC(=O)N[C@@H](CCC(=O)N[C@@H](CCC(=O)NCCCOCCOCCOCCCNC(=O)CCC(=O)NCCCOCCOCCOCCCNC(=O)CCC(=O)NCCCOCCOCCOCCCNC(=O)CCC(=O)NCCCC[C@H](NC(=O)CNC(=O)[C@H](CCC(=O)O)NC(=O)C(C)(C)NC(=O)C(C)(C)NC(=O)[C@@H](NC(=O)[C@H](CCCCNC(C)=O)NC(=O)[C@H](C)NC(=O)[C@H](CCCNC(=N)N)NC(=O)[C@@H](NC(=O)[C@H](CCCNC(=N)N)NC(=O)[C@H](CCC(=O)O)NC(=O)[C@H](CCCNC(=N)N)NC(=O)CNC(=O)[C@H](CCC(=O)O)NC(=O)[C@H](CC(C)C)NC(C)=O)C(C)C)[C@@H](C)CC)C(=O)N[C@@H](CO)C(=O)N[C@H](C(=O)N[C@@H](Cc1ccccc1)C(=O)N[C@@H](CO)C(=O)N[C@@](C)(CCCCN)C(=O)N[C@@H](CCCNC(=N)N)C(=O)N[C@@H](C)C(=O)N[C@@H](CCCCNC(C)=O)C(N)=O)[C@@H](C)O)C(=O)O)C(=O)O)C(=O)O [compound 27] (Ac-LEGRERVRAK(Ac)I[Aib][Aib]EGK([Suc-X1])STFS[αMeK]RAK(Ac)-NH2)	1.8 nM	98%
CCCCCCCCCCCCCCCC(=O)N[C@@H](CCC(=O)N[C@@H](CCC(=O)N[C@@H](CCC(=O)NCCCOCCOCCOCCCNC(=O)CCC(=O)NCCCOCCOCCOCCCNC(=O)CCC(=O)NCCCOCCOCCOCCCNC(=O)CCC(=O)NCCCC[C@H](NC(=O)CNC(=O)[C@H](CCC(=O)O)NC(=O)[C@@H](NC(=O)C(C)(C)NC(=O)[C@@H](NC(=O)[C@H](CCCCNC(C)=O)NC(=O)[C@H](C)NC(=O)[C@H](CCCNC(=N)N)NC(=O)[C@@H](NC(=O)[C@H](CCCCN)NC(=O)[C@H](CCC(=O)O)NC(=O)[C@H](CCCNC(=N)N)NC(=O)CNC(=O)[C@H](CCC(=O)O)NC(=O)C(C)(C)NC(C)=O)C(C)C)[C@@H](C)CC)[C@@H](C)CC)C(=O)N[C@@H](CO)C(=O)N[C@H](C(=O)N[C@@H](Cc1ccccc1)C(=O)N[C@@H](CO)C(=O)N[C@@](C)(CCCCN)C(=O)N[C@@H](CCCNC(=N)N)C(=O)N[C@@H](C)C(=O)N[C@@H](CCCCNC(C)=O)C(N)=O)[C@@H](C)O)C(=O)O)C(=O)O)C(=O)O [compound 86] (Ac-[Aib]EGREKVRAK(Ac)I[Aib]IEGK([Suc-X1])STFS[αMeK]RAK(Ac)-NH2)	0.3 nM	95%
CCCCCCCCCCCCCCCC(=O)N[C@@H](CCC(=O)N[C@@H](CCC(=O)N[C@@H](CCC(=O)NCCCOCCOCCOCCCNC(=O)CCC(=O)NCCCOCCOCCOCCCNC(=O)CCC(=O)NCCCOCCOCCOCCCNC(=O)CCC(=O)NCCCC[C@H](NC(=O)CNC(=O)[C@H](CCC(=O)O)NC(=O)C(C)(C)NC(=O)C(C)(C)NC(=O)[C@@H](NC(=O)[C@H](CCCCNC(C)=O)NC(=O)[C@H](C)NC(=O)[C@H](CCCNC(=N)N)NC(=O)[C@@H](NC(=O)[C@H](CCCCN)NC(=O)[C@H](CCC(=O)O)NC(=O)[C@H](CCCNC(=N)N)NC(=O)CNC(=O)[C@H](CCC(=O)O)NC(=O)[C@H](CC(C)C)NC(C)=O)C(C)C)[C@@H](C)CC)C(=O)N[C@@H](CO)C(=O)N[C@@H](CCCCN)C(=O)N[C@@H](Cc1c[nH]c2ccccc12)C(=O)N[C@@H](CO)C(=O)NC(C)(C)C(=O)N[C@@H](CCCNC(=N)N)C(=O)N[C@@H](CCCCN)C(=O)N[C@@H](CCCCNC(C)=O)C(N)=O)C(=O)O)C(=O)O)C(=O)O [compound 83] (Ac-LEGREKVRAK(Ac)I[Aib][Aib]EGK([Suc-X1])SKWS[Aib]RKK(Ac)-NH2)	0.25 nM	94%
CCCCCCCCCCCCCC(=O)N[C@@H](CCC(=O)N[C@@H](CCC(=O)N[C@@H](CCC(=O)NCCCOCCOCCOCCCNC(=O)CCC(=O)NCCCOCCOCCOCCCNC(=O)CCC(=O)NCCCOCCOCCOCCCNC(=O)CCC(=O)NCCCC[C@H](NC(=O)CNC(=O)[C@H](CCC(=O)O)NC(=O)C(C)(C)NC(=O)C(C)(C)NC(=O)[C@@H](NC(=O)[C@H](CCCCNC(C)=O)NC(=O)[C@H](C)NC(=O)[C@H](CCCNC(=N)N)NC(=O)[C@@H](NC(=O)[C@H](CCCCN)NC(=O)[C@H](CCC(=O)O)NC(=O)[C@H](CCCNC(=N)N)NC(=O)CNC(=O)[C@H](CCC(=O)O)NC(=O)[C@H](CC(C)C)NC(C)=O)C(C)C)[C@@H](C)CC)C(=O)N[C@@H](CO)C(=O)N[C@H](C(=O)N[C@@H](Cc1ccccc1)C(=O)N[C@@H](CO)C(=O)N[C@@](C)(CCCCN)C(=O)N[C@@H](CCCNC(=N)N)C(=O)N[C@@H](C)C(=O)N[C@@H](CCCCNC(C)=O)C(N)=O)[C@@H](C)O)C(=O)O)C(=O)O)C(=O)O [compound 95] (Ac-LEGREKVRAK(Ac)I[Aib][Aib]EGK([Suc-X6])STFS[αMeK]RAK(Ac)-NH2)	1.8 nM	91%
CCCCCCCCCCCCCCCC(=O)N[C@@H](CCC(=O)N[C@@H](CCC(=O)N[C@@H](CCC(=O)NCCCOCCOCCOCCCNC(=O)CCC(=O)NCCCOCCOCCOCCCNC(=O)CCC(=O)NCCCOCCOCCOCCCNC(=O)CCC(=O)NCCCC[C@H](NC(=O)CNC(=O)[C@H](CCC(=O)O)NC(=O)C(C)(C)NC(=O)C(C)(C)NC(=O)[C@@H](NC(=O)[C@H](CCCCNC(C)=O)NC(=O)[C@H](C)NC(=O)[C@H](CCCNC(=N)N)NC(=O)[C@@H](NC(=O)[C@H](CCCCN)NC(=O)[C@H](CCC(=O)O)NC(=O)[C@H](CCCNC(=N)N)NC(=O)CNC(=O)[C@H](CCC(=O)O)NC(=O)[C@H](CC(C)C)NC(C)=O)C(C)C)[C@@H](C)CC)C(=O)N[C@@H](CO)C(=O)N[C@H](C(=O)N[C@@H](Cc1ccccc1)C(=O)N[C@@H](CO)C(=O)N[C@H](CCCCN)C(=O)N[C@@H](CCCNC(=N)N)C(=O)N[C@@H](C)C(=O)N[C@@H](CCCCNC(C)=O)C(N)=O)[C@@H](C)O)C(=O)O)C(=O)O)C(=O)O [compound 36] (Ac-LEGREKVRAK(Ac)I[Aib][Aib]EGK([Suc-X1])STFS[dK]RAK(Ac)-NH2)	3.6 nM	93%
CCCCCCCCCCCCCCCC(=O)N[C@@H](CCC(=O)N[C@@H](CCC(=O)N[C@@H](CCC(=O)NCCCOCCOCCOCCCNC(=O)CCC(=O)NCCCOCCOCCOCCCNC(=O)CCC(=O)NCCCOCCOCCOCCCNC(=O)CCC(=O)NCCCC[C@H](NC(=O)CNC(=O)[C@H](CCC(=O)O)NC(=O)C(C)(C)NC(=O)C(C)(C)NC(=O)[C@@H](NC(=O)[C@H](CCCCNC(C)=O)NC(=O)[C@H](C)NC(=O)[C@H](CCCNC(=N)N)NC(=O)[C@@H](NC(=O)[C@H](CCCCN)NC(=O)[C@H](CCC(=O)O)NC(=O)[C@H](CCCNC(=N)N)NC(=O)CNC(=O)[C@H](CCC(=O)O)NC(=O)[C@H](CC(C)C)NC(C)=O)C(C)C)[C@@H](C)CC)C(=O)N[C@@H](CO)C(=O)N[C@H](C(=O)N[C@@H](Cc1ccccc1)C(=O)N[C@H](C(=O)N[C@@H](CCCNC(=N)N)C(=O)N[C@@H](CCCNC(=N)N)C(=O)N[C@@H](C)C(=O)N[C@@H](CCCCNC(C)=O)C(N)=O)C(C)C)[C@@H](C)O)C(=O)O)C(=O)O)C(=O)O [compound 94] (Ac-LEGREKVRAK(Ac)I[Aib][Aib]EGK([Suc-X1])STFVRRAK(Ac)-NH2)	1.74 nM	88%
CCCCCCCCCCCCCCCCCC(=O)N[C@@H](CCC(=O)N[C@@H](CCC(=O)N[C@@H](CCC(=O)NCCCOCCOCCOCCCNC(=O)CCC(=O)NCCCOCCOCCOCCCNC(=O)CCC(=O)NCCCC[C@H](NC(=O)CNC(=O)[C@H](CCC(=O)O)NC(=O)C(C)(C)NC(=O)C(C)(C)NC(=O)[C@@H](NC(=O)[C@H](CCCCNC(C)=O)NC(=O)[C@H](C)NC(=O)[C@H](CCCNC(=N)N)NC(=O)[C@@H](NC(=O)[C@H](CCCCN)NC(=O)[C@H](CCC(=O)O)NC(=O)[C@H](CCCNC(=N)N)NC(=O)CNC(=O)[C@H](CCC(=O)O)NC(=O)[C@H](CC(C)C)NC(C)=O)C(C)C)[C@@H](C)CC)C(=O)N[C@@H](CO)C(=O)N[C@H](C(=O)N[C@@H](Cc1ccccc1)C(=O)N[C@@H](CO)C(=O)NC(C)(C)C(=O)N[C@@H](CCCNC(=N)N)C(=O)N[C@@H](CCCCN)C(=O)N[C@@H](CCCCNC(C)=O)C(N)=O)[C@@H](C)O)C(=O)O)C(=O)O)C(=O)O [compound 60] (Ac-LEGREKVRAK(Ac)I[Aib][Aib]EGK([Suc-X4])STFS[Aib]RKK(Ac)-NH2)	0.15 nM	95%
CCCCCCCCCCCCCCCC(=O)N[C@@H](CCC(=O)N[C@@H](CCC(=O)N[C@@H](CCC(=O)NCCCOCCOCCOCCCNC(=O)CCC(=O)NCCCOCCOCCOCCCNC(=O)CCC(=O)NCCCOCCOCCOCCCNC(=O)CCC(=O)NCCCC[C@H](NC(=O)CNC(=O)[C@H](CCC(=O)O)NC(=O)C(C)(C)NC(=O)C(C)(C)NC(=O)[C@@H](NC(=O)[C@H](CCCCNC(C)=O)NC(=O)[C@H](C)NC(=O)[C@H](CCCNC(=N)N)NC(=O)[C@@H](NC(=O)[C@H](Cc1ccccc1)NC(=O)[C@H](CCC(=O)O)NC(=O)[C@H](CCCNC(=N)N)NC(=O)CNC(=O)[C@H](CCC(=O)O)NC(=O)[C@H](CC(C)C)NC(C)=O)C(C)C)[C@@H](C)CC)C(=O)N[C@@H](CO)C(=O)N[C@H](C(=O)N[C@@H](Cc1c[nH]c2ccccc12)C(=O)N[C@@H](CO)C(=O)NC(C)(C)C(=O)N[C@@H](CCCNC(=N)N)C(=O)N[C@@H](CCCNC(=N)N)C(=O)N[C@@H](CCCCNC(C)=O)C(N)=O)[C@@H](C)O)C(=O)O)C(=O)O)C(=O)O [compound 39] (Ac-LEGREFVRAK(Ac)I[Aib][Aib]EGK([Suc-X1])STWS[Aib]RRK(Ac)-NH2)	8.7 nM	93%
